Paper PMC7956481, “Carrier-Free Immobilization of α-Galactosidase as Nano-Biocatalysts for Synthesizing Prebiotic α-Galacto-Oligosaccharides” (Molecules, 2021)

Tested on: T1, α-galactosidase
T1 construct: gene aglA; native extracellular enzyme; filtered culture supernatant used as crude enzyme, not purified
Assay: p-nitrophenol release at […] nm, Michaelis-Menten fit (GraphPad Prism […])
Type: biochemical, Aspergillus niger
Conditions: free enzyme (crude culture supernatant); 50 mM acetate buffer pH 5.5; 37 °C; 10 min; 0.3 to 2.2 mM substrate

Km: 300 ± 20 µM
Structure (SMILES): O=[N+]([O-])c1ccc(O[C@H]2O[C@H](CO)[C@H](O)[C@H](O)[C@H]2O)cc1 [p-Nitrophenyl α-D-galactopyranoside]
